Reference: US10214542B2, “Modified macrocyclic compounds” (BAYER PHARMA AKTIENGESELLSCHAFT, priority 2015, dated 2019)
Like-named read-outs stand apart in the source and are kept apart here.

What was measured:
A2780 cells = experiment: Proliferation assay, Cell Titre-Glo viability (Method 3); assay type: cell-based, human; settings: Homo sapiens, A2780, 72 h, A2780, 72-hour exposure; read-out: Inhibition of A2780 cell proliferation IC50
Protocol: A2780 human ovarian carcinoma cells (ECACC #93112519) and non-adherent MOLM-13 human acute myeloid leukemia cells (DSMZ ACC 554) were seeded at a density of 3,000 cell/well (A2780) or 5,000 cells/well (MOLM-13) in a 96-well multititer plate in 150 μL of growth medium supplemented 10% fetal calf serum. After 24 hours, cell viability of one plate (zero-point plate) was determined with the Cell Titre-Glo Luminescent Cell Viability Assay (Promega), while the medium of the other plates was supplemented with the test substances in various concentrations (0 μM, as well as in the range of 0.0001-10 μM; the final concentration of the solvent dimethyl sulfoxide was adjusted to 0.1%) using a Hewlett-Packard HP D300 Digital Dispenser. Cell viability was assessed after 72-hour exposure with the Cell
Titre-Glo Luminescent Cell Viability Assay (Promega). IC50 values (inhibitory concentration at 50% of maximal effect) were determined by means of a 4 parameter fit on measurement data which were normalized to vehicle (DMSO) treated cells (=100%) and measurement readings taken immediately before compound exposure (=0%).

CDK2/CycE = molecular target: T1, CDK2/CycE (Homo sapiens, UniProt P24941); experiment: CDK2/CycE high ATP kinase assay (TR-FRET, Method 2b); assay type: biochemical; settings: 2 mM ATP
T1 construct: GST; purchased ProQinase GmbH (Freiburg, Germany); host or cells: insect cells (Sf9)
Protocol: 2b. CDK2/CycE High ATP Kinase Assay:
CDK2/CycE-inhibitory activity of compounds of the present invention at 2 mM adenosine-tri-phosphate (ATP) was quantified employing the CDK2/CycE TR-FRET (TR-FRET=Time Resolved Fluorescence Resonance Energy Transfer) assay as described in the following paragraphs.
Recombinant fusion proteins of GST and human CDK2 and of GST and human CycE, expressed in insect cells (Sf9) and purified by Glutathion-Sepharose affinity chromatography, were purchase from ProQinase GmbH (Freiburg, Germany). As substrate for the kinase reaction biotinylated peptide biotin-Ttds-YISPLKSPYKISEG (C-terminus in amid form) was used which can be purchased e.g. from the company JERINI peptide technologies (Berlin, Germany).
For the assay 50 nl of a 100 fold concentrated solution of the test compound in DMSO was pipetted into a black low volume 384 well microtiter plate (Greiner Bio-One, Frickenhausen, Germany), 2 μl of a solution of CDK2/CycE in aqueous assay buffer [50 mM Tris/HCl pH 8.0, 10 mM MgCl2, 1.0 mM dithiothreitol, 0.1 mM sodium ortho-vanadate, 0.01% (v/v) Nonidet-P40 (Sigma)] were added and the mixture was incubated for 15 min at 22° C. to allow pre-binding of the test compounds to the enzyme before the start of the kinase reaction. Then the kinase reaction was started by the addition of 3 μl of a solution ATP (3.33 mM=>final conc. in the 5 μl assay volume is 2 mM) and substrate (1.25 μM=>final conc. in the 5 μl assay volume is 0.75 μM) in assay buffer and the resulting mixture was incubated for a reaction time of 25 min at 22° C. The concentration of CDK2/CycE was adjusted depending of the activity of the enzyme lot and was chosen appropriate to have the assay in the linear range, typical concentrations were in the range of 15 ng/ml. The reaction was stopped by the addition of 5 μl of a solution of TR-FRET detection reagents (0.2 μM streptavidine-XL665 [Cisbio Bioassays, Codolet, France] and 1 nM anti-RB(pSer807/pSer811)-antibody from BD Pharmingen [#558389] and 1.2 nM LANCE EU-W1024 labeled anti-mouse IgG antibody [Perkin-Elmer, product no. AD0077, as an alternative a Terbium-cryptate-labeled anti-mouse IgG antibody from Cisbio Bioassays can be used]) in an aqueous EDTA-solution (100 mM EDTA, 0.2% (w/v) bovine serum albumin in 100 mM HEPES pH 7.5).
The resulting mixture was incubated 1 h at 22° C. to allow the formation of complex between the phosphorylated biotinylated peptide and the detection reagents. Subsequently the amount of phosphorylated substrate was evaluated by measurement of the resonance energy transfer from the Eu-chelate to the streptavidine-XL. Therefore, the fluorescence emissions at 620 nm and 665 nm after excitation at 350 nm were measured in a TR-FRET reader, e.g. a Rubystar (BMG Labtechnologies, Offenburg, Germany) or a Viewlux (Perkin-Elmer). The ratio of the emissions at 665 nm and at […] was taken as the measure for the amount of phosphorylated substrate. The data were normalised (enzyme reaction without inhibitor=0% inhibition, all other assay components but no enzym=100% inhibition).

HeLa cells = experiment: Proliferation assay, crystal violet (Method 3); assay type: cell-based, human; settings: 4 days, read-out: Inhibition of HeLa cell proliferation IC50
Protocol: Cultivated tumour cells (HeLa, human cervical tumour cells, ATCC CCL-2; NCI-H460, human non-small cell lung carcinoma cells, ATCC HTB-177; DU 145, hormone-independent human prostate carcinoma cells, ATCC HTB-81; HeLa-MaTu-ADR, multidrug-resistant human cervical carcinoma cells, EPO-GmbH Berlin; Caco-2, human colorectal carcinoma cells, ATCC HTB-37; B16F10, mouse melanoma cells, ATCC CRL-6475) were plated at a density of 5,000 cells/well (DU145, HeLa-MaTu-ADR), 3,000 cells/well (NCI-H460, HeLa), 1,500 cells/well (Caco-2), or 1,000 cells/well (B16F10) in a 96-well multititer plate in 200 μL of their respective growth medium supplemented 10% fetal calf serum. After 24 hours, the cells of one plate (zero-point plate) were stained with crystal violet (see below), while the medium of the other plates was supplemented with the test substances in various concentrations (0 μM, as well as in the range of 0.0001-10 μM; the final concentration of the solvent dimethyl sulfoxide was adjusted to 0.1%) using a Hewlett-Packard HP D300 Digital Dispenser. The cells were incubated for 4 days in the presence of test substances. Cell proliferation was determined by staining the cells with crystal violet: the cells were fixed by adding 20 μl/measuring point of an 11% glutaric aldehyde solution for 15 minutes at room temperature. After three washing cycles of the fixed cells with water, the plates were dried at room temperature. The cells were stained by adding 100 μl/measuring point of a 0.1% crystal violet solution (pH 3.0). After three washing cycles of the stained cells with water, the plates were dried at room temperature. The dye was dissolved by adding 100 μl/measuring point of a 10% acetic acid solution. The extinction was determined by photometry at a wavelength of 595 nm. The change of cell number, in percent, was calculated by normalization of the measured values to the extinction values of the zero-point plate (=0%) and the extinction of the untreated (0 μm) cells (=100%). The IC50 values (inhibitory concentration at 50% of maximal effect) were determined by means of a 4 parameter fit.

| Compound | IC50 (A2780 cells) | IC50 (CDK2/CycE) | IC50 (HeLa cells; Homo sapiens, 96 h) | IC50 (HeLa cells) |
| --- | --- | --- | --- | --- |
| CS(=N)(=O)Cc1cc2nc(c1)Nc1cc(c(F)cn1)-c1ccc(F)cc1OCCCN2 (racemic) [Example 8, (rac)-15,19-difluoro-8-[(S-methylsulfonimidoyl)methyl]-2,3,4,5-tetrahydro-11H-10,6-(azeno)-16,12-(metheno)-1,5,11,13-benzoxatriazacyclooctadecine] | 1.4 nM | 29 nM | 3.3 nM |  |
| CN1CCCCOc2cc(F)ccc2-c2cc(ncc2F)Nc2cc(CS(C)(=N)=O)cc1n2 (racemic) [Example 11, (rac)-16,20-difluoro-6-methyl-9-[(S-methylsulfonimidoyl)methyl]-3,4,5,6-tetrahydro-2H-7,11-(azeno)-17,13-(metheno)-1,6,12,14-benzoxatriazacyclononadecine] | 4.6 nM | 80 nM | 10 nM |  |
| C[S+]([O-])Cc1cc2nc(c1)OCCCCc1cc(F)ccc1-c1cc(ncc1F)N2 (racemic) [Example 5, (rac)-2,18-Difluoro-9-[(methylsulfinyl)methyl]-13,14,15,16-tetrahydro-6H-7,11-(azeno)-5,1-(metheno)-12,4,6-benzoxadiazacyclooctadecine] | 270 nM | 8250 nM | 955 nM |  |
| CC(C)(C)OC(=O)N=S(C)(=O)Cc1cc2cc(c1)OCCCNc1cc(F)ccc1-c1nc(ncc1F)N2 (racemic) [Example 13, (rac)-tert-butyl[{[15,19-difluoro-1,2,3,4-tetrahydro-16,12-(azeno)-6,10-(metheno)-5,1,11,13-benzoxatriazacyclooctadecin-8(11H)-yl]methyl}(methyl)oxido-λ^6-sulfanylidene]carbamate] | 19 nM | 1280 nM | 78 nM |  |
| CSCc1cc2nc(c1)OCCCCc1cc(F)ccc1-c1cc(ncc1F)N2 [Example 4, 2,18-Difluoro-9-[(methylsulfanyl)methyl]-13,14,15,16-tetrahydro-6H-7,11-(azeno)-5,1-(metheno)-12,4,6-benzoxadiazacyclooctadecine] |  | > 20000 nM | 9280 nM |  |
| CC(C)(C)OC(=O)N=S(C)(=O)Cc1cc2cc(c1)OCCCCSc1cc(F)ccc1-c1nc(ncc1F)N2 (racemic) [Example 21, (rac)-tert-butyl[{[16,20-difluoro-2,3,4,5-tetrahydro-12H-17,13-(azeno)-11,7-(metheno)-6,1,12,14-benzoxathiadiazacyclononadecin-9-yl]methyl}(methyl)oxido-λ^6-sulfanylidene]carbamate] | > 100 nM | 11900 nM | 327 nM |  |
| CS(=O)(Cc1cc2nc(c1)Nc1cc(c(F)cn1)-c1ccc(F)cc1OCCCCN2)=NC(=O)OCc1ccccc1 (racemic) [Example 2, (rac)-Benzyl[{[16,20-difluoro-3,4,5,6-tetrahydro-2H,12H-11,7-(azeno)-13,17-(metheno)-1,6,12,14-benzoxatriazacyclononadecin-9-yl]methyl}(methyl)oxido-λ^6-sulfanylidene]carbamate] | 38 nM | 8050 nM | 77 nM | > 100 nM |
| CC(C)(C)OC(=O)N=S(C)(=O)Cc1cc2cc(c1)Nc1ncc(F)c(n1)-c1ccc(F)cc1OCCCCN2 (racemic) [Example 24, (rac)-tert-butyl[{[16,20-difluoro-3,4,5,6-tetrahydro-2H,12H-13,17-(azeno)-11,7-(metheno)-1,6,12,14-benzoxatriazacyclononadecin-9-yl]methyl}(methyl)oxido-λ^6-sulfanylidene]carbamate] |  | > 20000 nM |  |  |
| CS(=N)(=O)Cc1cc2nc(c1)Nc1cc(c(F)cn1)-c1ccc(F)cc1OCCCCN2 (racemic) [Example 3, (rac)-16,20-Difluoro-9-[(S-methylsulfonimidoyl)methyl]-3,4,5,6-tetrahydro-2H,12H-11,7-(azeno)-13,17-(metheno)-1,6,12,14-benzoxatriazacyclononadecine] | 5.5 nM | 650 nM |  |  |
| CS(=N)(=O)Cc1cc2cc(c1)OCCCCSc1cc(F)ccc1-c1nc(ncc1F)N2 (racemic) [Example 22, (rac)-16,20-difluoro-9-[(S-methylsulfonimidoyl)methyl]-2,3,4,5-tetrahydro-12H-17,13-(azeno)-11,7-(metheno)-6,1,12,14-benzoxathiadiazacyclononadecine] | 45 nM | 1100 nM | 102 nM |  |
| CSCc1cc2nc(c1F)N(C)CCCCOc1cc(F)ccc1-c1cc(ncc1F)N2 [Example 12, 8,16,20-trifluoro-6-methyl-9-[(methylsulfanyl)methyl]-3,4,5,6-tetrahydro-2H,12H-11,7-(azeno)-13,17-(metheno)-1,6,12,14-benzoxatriazacyclononadecine] | > 100 nM |  | 851 nM |  |
| CN1CCCCOc2cc(F)ccc2-c2nc(ncc2F)Nc2cc(CS(C)(=N)=O)cc1c2 (racemic) [Example 23, (rac)-16,20-difluoro-6-methyl-9-[(S-methylsulfonimidoyl)methyl]-3,4,5,6-tetrahydro-2H,12H-13,17-(azeno)-11,7-(metheno)-1,6,12,14-benzoxatriazacyclononadecine] | 13 nM | 1320 nM |  |  |
| CS(=N)(=O)Cc1cc2cc(c1)OCCCNc1cc(F)ccc1-c1nc(ncc1F)N2 (racemic) [Example 14, rac-15,19-difluoro-8-[(S-methylsulfonimidoyl)methyl]-1,2,3,4-tetrahydro-16,12-(azeno)-6,10-(metheno)-5,1,11,13-benzoxatriazacyclooctadecine] | 4.7 nM | 94 nM |  |  |
